Experimental data from patent US5147876A, “2,6-di,2,4,6-, 2,5,6-tri and 2,4,5,6-tetra-substituted pyrimidines, their pharmaceutically acceptable salts, pharmaceutical compositions containing same and their use in the treatment of neurological diseases” (Mitsui Petrochemical Industries, Ltd., priority 1988, dated 1992).

How the values were obtained:
Acute toxicity on mice = assay type: in vivo; conditions: mouse, in vivo, ip, 24 hours after administration; read-out: Estimated LD50
Method: The acute toxicity of the compounds of the invention was examined by the following method.
Male ddy-strain 5-week old mice, 4-6- per group, were used as experimental animals. Each of the compounds was intraperitoneally (i.p.), and the toxicity of the compound was assessed 24 hours after the administration.

[1] = tested on: neuro-2a (mouse neuroblastoma cells); test: Action on neuro-2a: proportion of cells containing outgrown neurites; assay type: cell-based; conditions: mean ± S.D.
Outline: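 Mouse neuro-2a cells at 1,000 cells/well in DMEM with 10% FCS were cultured one day at 37 °C, 5% CO2, then glutaraldehyde-fixed and methylene-blue-stained. The proportion of cells bearing a neurite at least twice the cell's long diameter was counted over >200 cells; up to 6 concentrations, triplicate runs.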

[2] = tested on: NS-20Y (mouse neuroblastoma cells); test: Activity on NS-20Y cells: appearance of neurites; assay type: cell-based
Outline: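 Mouse neuroblastoma NS-20Y cells were grown in polyornithine-coated dishes in DMEM with 10 % FCS, 100 units/ml penicillin G sodium and 100 micrograms/ml streptomycin sulfate, at 37° C under 5 % carbon dioxide, and exposed to compound. Cells were fixed with 4 % glutaraldehyde, stained with 0.05 % methylene blue, and the fraction bearing neurites at least twice the cell's long diameter was counted microscopically.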

| SMILES | LD50 at 24 h (Acute toxicity on mice) [mg/kg] | Number of cells having neurites with a length at least two times the diameter of each cell/total number of cells ([1]; 0.03 mM) [%] | Number of cells having neurites with a length at least two times the diameter of each cell/total number of cells ([1]; 0.1 mM) [%] | Number of cells having neurites with a length at least two times the diameter of each cell/total number of cells ([1]; 0.3 mM) [%] | Number of cells having neurites with a length at least two times the diameter of each cell/total number of cells ([1]; 1 mM) [%] | Number of cells in which neurites appeared/total number of cells ([2]; 24 hours, 0.1 mM) | Number of cells in which neurites appeared/total number of cells ([2]; 48 hours, 0.1 mM) | other results |
| --- | --- | --- | --- | --- | --- | --- | --- | --- |
| COc1ccc(C(=O)N(C)c2ccnc(N3CCC(c4ccccc4)CC3)n2)cc1 [Compound 272] | > 1000 | 4.8 ± 1.3 | 30.9 ± 2.8 | 15.9 ± 0.5 | 17.0 ± 4.3 | 33/50 | 17/50 | Number of cells in which neurites appeared/total number of cells ([2]; 24 hours, 0.2 mM): 24/50 |
| CN(C(=O)c1ccccc1)c1ccnc(N2CCCc3ccccc32)n1 [Compound 328] | > 1000 | 10.2 ± 8.2 | 28.0 ± 6.8 | 10.6 ± 3.4 | – | 32/50 | 12/51 | Number of cells having neurites with a length at least two times the diameter of each cell/total number of cells ([1]; 0.01 mM): 6.6 ± 0.5%; Number of cells in which neurites appeared/total number of cells ([2]; 48 hours, 0.025 mM): 8/50 |
| CN(C(=O)c1ccc(Cl)cc1)c1ccnc(N2CCC(c3ccccc3)CC2)n1 [Compound 240] | > 1000 | 19.8 ± 5.7 | 38.7 ± 4.5 | 33.2 ± 0.9 | 30.9 ± 5.9 | – | – | Number of cells in which neurites appeared/total number of cells ([2]; 24 hours, 0.2 mM): 4/50; Number of cells in which neurites appeared/total number of cells ([2]; 48 hours, 0.2 mM): 3/50 |
| CN(C(=O)c1ccco1)c1nccc(N2CCC(c3ccccc3)CC2)n1 [Compound 684] | 500 to 1000 | 5.8 ± 2.0 | 16.4 ± 2.8 | – | – | 2.50 | – | Number of cells having neurites with a length at least two times the diameter of each cell/total number of cells ([1]; 0.01 mM): 3.8 ± 0.5%; Number of cells in which neurites appeared/total number of cells ([2]; 48 hours, 0.05 mM): 2/50 |
| CC1CCN(c2nccc(N(C)C(=O)c3ccccc3)n2)CC1 [Compound 144] | > 1000 | – | 13.7 ± 7.8 | 33.8 ± 8.6 | – | 37/50 | 31/50 | Number of cells in which neurites appeared/total number of cells ([2]; 48 hours, 0.025 mM): 6/50; Number of cells in which neurites appeared/total number of cells ([2]; 48 hours, 0.05 mM): 8/52 |
| COC(=O)c1cnc(NC(C)C)nc1C.O=C(O)/C=C\C(=O)O [Compound 804, 2-isopropylamino-4-methyl-5-methoxycarbonylpyrimidine maleate] | 500 to 1000 | – | – | 9.4 ± 1.3 | 26.1 ± 6.8 | – | – | Number of cells having neurites with a length at least two times the diameter of each cell/total number of cells ([1]; 0.5 mM): 13.0 ± 2.1%; Number of cells having neurites with a length at least two times the diameter of each cell/total number of cells ([1]; 2 mM): 18.8 ± 3.1%; Number of cells in which neurites appeared/total number of cells ([2]; 24 hours, 0.25 mM): 8/55; Number of cells in which neurites appeared/total number of cells ([2]; 24 hours, 0.5 mM): 7/50; Number of cells in which neurites appeared/total number of cells ([2]; 48 hours, 0.25 mM): 8/50; Number of cells in which neurites appeared/total number of cells ([2]; 48 hours, 0.5 mM): 25/51 |
| CN(C(=O)c1ccccc1)c1nccc(N2CCCCC2)n1 [Compound 604] | < 500 | – | 18.7 ± 4.1 | 24.6 ± 2.9 | – | – | – | Number of cells in which neurites appeared/total number of cells ([2]; 24 hours, 0.02 mM): 6/50; Number of cells in which neurites appeared/total number of cells ([2]; 24 hours, 0.4 mM): 7/50; Number of cells in which neurites appeared/total number of cells ([2]; 48 hours, 0.02 mM): 2/50 |
| CCCCN(CCCC)c1nccc(N(C)C(=O)c2ccccc2)n1 [Compound 112] | > 1000 | 4.8 ± 0.1 | 18.6 ± 5.2 | 2.6 ± 0.6 | 7.6 ± 4.9 | – | – | Number of cells in which neurites appeared/total number of cells ([2]; 24 hours, 0.025 mM): 4/51; Number of cells in which neurites appeared/total number of cells ([2]; 48 hours, 0.01 mM): 4/49; Number of cells in which neurites appeared/total number of cells ([2]; 48 hours, 0.025 mM): 9/50 |
| CN(C(=O)C=Cc1ccccc1)c1ccnc(N2CCC(c3ccccc3)CC2)n1 [Compound 170-2] | 500 to 1000 | – | 14.7 ± 1.1 | 5.6 ± 2.1 | 13.9 ± 3.0 | 3/50 | 2/50 | – |
| Cc1cc(N(C)C(=O)c2ccccc2)nc(N2CCC(c3ccccc3)CC2)n1 [Compound 400] | 500 to 1000 | – | – | 11.4 ± 4.3 | 16.0 ± 2.7 | 9/50 | 3/50 | Number of cells in which neurites appeared/total number of cells ([2]; 24 hours, 0.4 mM): 30/53; Number of cells in which neurites appeared/total number of cells ([2]; 48 hours, 0.4 mM): 3/48 |
| CCCN(C(=O)c1ccccc1)c1ccnc(N2CCC(c3ccccc3)CC2)n1 [Compound 184] | > 1000 | – | 18.8 ± 4.7 | 16.0 ± 2.4 | – | 5/48 | – | Number of cells in which neurites appeared/total number of cells ([2]; 24 hours, 0.02 mM): 8/50; Number of cells in which neurites appeared/total number of cells ([2]; 48 hours, 0.02 mM): 3/50 |
| CCN(C(=O)c1ccccc1)c1ccnc(N2CCC(c3ccccc3)CC2)n1 [Compound 176] | > 1000 | 5.3 ± 1.9 | 3.2 ± 3.1 | – | – | 8/50 | – | Number of cells in which neurites appeared/total number of cells ([2]; 48 hours, 0.02 mM): 2/50 |
| CN(C(=O)c1ccccc1)c1ccnc(N2CCC(Cc3ccccc3)CC2)n1 [Compound 304] | > 1000 | – | 38.1 ± 1.6 | 15.3 ± 6.3 | – | 40/50 | – | Number of cells in which neurites appeared/total number of cells ([2]; 48 hours, 0.01 mM): 3/50 |
| CC1CCN(c2ccnc(N(C)C(=O)c3ccccc3)n2)CC1 [Compound 612] | 500 to 1000 | 19.1 ± 3.0 | 19.4 ± 3.9 | 22.4 ± 2.4 | – | 2/50 | 2/50 | Number of cells having neurites with a length at least two times the diameter of each cell/total number of cells ([1]; 0.01 mM): 13.8 ± 1.5% |
| CC(=O)N(C)c1ccnc(N2CCCCC2)n1 [Compound 128] | > 1000 | – | – | 9.9 ± 0.6 | 19.8 ± 2.8 | – | – | Number of cells having neurites with a length at least two times the diameter of each cell/total number of cells ([1]; 0.5 mM): 9.1 ± 0.7%; Number of cells having neurites with a length at least two times the diameter of each cell/total number of cells ([1]; 2 mM): 14.3 ± 2.4%; Number of cells in which neurites appeared/total number of cells ([2]; 24 hours, 0.3 mM): 4/49; Number of cells in which neurites appeared/total number of cells ([2]; 24 hours, 1.0 mM): 23/55; Number of cells in which neurites appeared/total number of cells ([2]; 48 hours, 0.3 mM): 31/50; Number of cells in which neurites appeared/total number of cells ([2]; 48 hours, 0.5 mM): 21/50 |
| CN(C(=O)c1ccccc1)c1ccnc(N2CCN(c3ccccc3)CC2)n1 [Compound 360] | > 1000 | 6.5 ± 0.7 | 10.0 ± 0.7 | – | – | 18/50 | 4/50 | Number of cells in which neurites appeared/total number of cells ([2]; 24 hours, 0.02 mM): 8/50 |
| CN(C(=O)c1ccccc1)c1nccc(N2CCC(c3ccccc3)CC2)n1 [Compound 628] | 500 to 1000 | 10.2 ± 1.3 | 13.4 ± 3.2 | 12.6 ± 3.2 | 10.0 ± 3.9 | 9/50 | 3/50 | – |
